Paper PMC7215373, “Design, Synthesis, and Anticancer Evaluation of Novel Indole Derivatives of Ursolic Acid as Potential Topoisomerase II Inhibitors” (International Journal of Molecular Sciences, 2020)

Legend:
DNA topoisomerase I = molecular target: T1, DNA topoisomerase I (Bos taurus, UniProt F1MN93); test: Topoisomerase I relaxation assay (supercoiled pBR322); format: biochemical; conditions: for inhibition at 20 µM: 20 μM compound, read-out: Topo I Inhibition (%) 20 μM; for inhibition at 100 µM: 100 μM compound, read-out: Topo I Inhibition (%) 100 μM
T1 construct: purchased TaKaRa, Kyoto, Japan
T1 sequence (F1MN93 1-767): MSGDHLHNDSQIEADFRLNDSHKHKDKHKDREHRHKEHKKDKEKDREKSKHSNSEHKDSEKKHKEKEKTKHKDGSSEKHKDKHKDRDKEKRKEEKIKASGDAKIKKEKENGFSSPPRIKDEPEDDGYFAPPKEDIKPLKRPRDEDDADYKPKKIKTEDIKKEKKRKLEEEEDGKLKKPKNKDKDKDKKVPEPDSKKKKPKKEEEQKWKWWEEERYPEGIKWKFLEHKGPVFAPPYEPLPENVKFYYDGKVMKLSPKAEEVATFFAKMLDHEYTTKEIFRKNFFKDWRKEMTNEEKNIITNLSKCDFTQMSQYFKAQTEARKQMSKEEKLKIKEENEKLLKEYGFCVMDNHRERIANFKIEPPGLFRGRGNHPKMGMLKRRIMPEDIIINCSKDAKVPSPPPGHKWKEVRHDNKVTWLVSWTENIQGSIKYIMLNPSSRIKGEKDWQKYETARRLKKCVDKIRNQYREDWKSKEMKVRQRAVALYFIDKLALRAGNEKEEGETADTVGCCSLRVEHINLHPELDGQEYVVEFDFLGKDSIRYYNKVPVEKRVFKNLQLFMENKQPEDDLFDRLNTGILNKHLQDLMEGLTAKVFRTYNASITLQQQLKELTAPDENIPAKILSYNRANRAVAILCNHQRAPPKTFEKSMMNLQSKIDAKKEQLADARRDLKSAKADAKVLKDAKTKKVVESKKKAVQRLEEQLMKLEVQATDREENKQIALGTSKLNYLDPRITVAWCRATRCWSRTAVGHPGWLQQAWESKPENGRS
Procedure: The effect of the tested compounds on Topo I and II activities were evaluated by Topo I/II relaxation assays. The reaction products, relaxed DNA could be distinguished from supercoiled DNA by gel electrophoresis and visualized using gel imaging system. The activity of DNA topoisomerase I (TaKaRa, Kyoto, Japan) was determined by measuring the relaxation of supercoiled DNA pBR322 [32]. Camptothecin was used as a positive control. The reaction mixture was prepared according to the manufacture's protocol, and incubated at 37 °C for 30 min. The reactions were terminated by adding dye solution containing 1% SDS, 0.02% bromophenol blue and 50% glycerol. The mixtures were applied to 1% agarose gel and subjected to electrophoresis for 1 h, in 1× TAE buffer (40 mM Tris-acetate, 1 mM EDTA). Gels were stained for 30 min in 60 mL 1× TAE buffer with ethidium bromide (0.5 μg/mL). DNA bands were visualized by transillumination with UV light and then photographed by a Gel Doc XR+ System (BIO-RAD, Hercules, CA, USA).

SMMC-7721 cells = test: MTT cytotoxicity assay, SMMC-7721; format: cell-based, human; conditions: 48 h exposure
Procedure: (§1) The in vitro cytotoxic activities of synthesized compounds were evaluated against two human hepatocarcinoma cell lines (SMMC-7721 and HepG2) and the human normal hepatocyte cell line (LO2) via MTT assay. All tested compounds were dissolved in DMSO and the stock solutions were diluted by DMEM medium before treatment of the cultured cells. […] Cell lines were obtained from American Tissue Culture Collection (ATCC). Briefly, different tumor cells were grown in DMEM medium supplemented with 10% fetal bovine serum, penicillin (100 U/mL), and streptomycin (50 μg/mL). Cells were harvested at log phase of growth and seeded in 96-well plates (100 μL/well at a density of 2 × 10^5 cells/mL). After 24 h incubation at 37 °C and 5% CO2 to allow cell attachment, cultures were exposed to various concentrations of the isolated compounds for 48 h. Finally, MTT solution (2.5 mg/mL in PBS) was added (40 μL/well). Plates were further incubated for 4 h at 37 °C, and the formazan crystals formed were dissolved by adding 150 μL/well of DMSO. Absorption at 570 nm was measured with an ELISA plate reader. […] Doxorubicin, camptothecin, and etoposide (VP-16) were co-assayed as positive controls.

Human Topoisomerase IIα = molecular target: T2, Human Topoisomerase IIα (Homo sapiens, UniProt P11388); test: Topoisomerase II relaxation assay (supercoiled pBR322); format: biochemical; conditions: for inhibition at 20 µM: 20 μM compound, read-out: Topo II Inhibition (%) 20 μM; for inhibition at 100 µM: 100 μM compound, read-out: Topo II Inhibition (%) 100 μM
T2 construct: purchased USB, Affymetrix, Waltham, MA, USA
Procedure: The effect of the tested compounds on Topo I and II activities were evaluated by Topo I/II relaxation assays. The reaction products, relaxed DNA could be distinguished from supercoiled DNA by gel electrophoresis and visualized using gel imaging system. Human Topoisomerase IIα activity was detected by measuring the relaxation of supercoiled pBR322 plasmid DNA [22]. […] For inhibition studies, the compounds were pre-incubated with human Topo IIα and DNA for 15 min. Compounds were used at the appropriate concentrations by dissolving in 2% (v/v) DMSO. DMSO didn't show detrimental effect on the enzyme activity at concentration up to 2% (v/v). Reaction mixture was incubated at 37 °C for 30 min and stopped by the addition of 7 mM EDTA. Reaction product was mixed with DNA loading dye and electrophoresed on 1% TAE-Agarose. The gel was stained with ethidium bromide (0.5 μg/mL) for 30 min, destained twice in 1× TAE buffer, and then visualized using a BIO-RAD Gel Doc XR+ System. Etoposide (VP-16) was co-assayed as a positive control.

HepG2 cells = test: MTT cytotoxicity assay, HepG2; format: cell-based, human; conditions: 48 h exposure
Procedure: as §1

LO2 cells = test: MTT cytotoxicity assay, normal hepatocyte LO2; format: cell-based; conditions: Homo sapiens, L02, 48 h exposure, normal hepatocyte cell line
Procedure: as §1

T2 sequence (P11388 whole entry): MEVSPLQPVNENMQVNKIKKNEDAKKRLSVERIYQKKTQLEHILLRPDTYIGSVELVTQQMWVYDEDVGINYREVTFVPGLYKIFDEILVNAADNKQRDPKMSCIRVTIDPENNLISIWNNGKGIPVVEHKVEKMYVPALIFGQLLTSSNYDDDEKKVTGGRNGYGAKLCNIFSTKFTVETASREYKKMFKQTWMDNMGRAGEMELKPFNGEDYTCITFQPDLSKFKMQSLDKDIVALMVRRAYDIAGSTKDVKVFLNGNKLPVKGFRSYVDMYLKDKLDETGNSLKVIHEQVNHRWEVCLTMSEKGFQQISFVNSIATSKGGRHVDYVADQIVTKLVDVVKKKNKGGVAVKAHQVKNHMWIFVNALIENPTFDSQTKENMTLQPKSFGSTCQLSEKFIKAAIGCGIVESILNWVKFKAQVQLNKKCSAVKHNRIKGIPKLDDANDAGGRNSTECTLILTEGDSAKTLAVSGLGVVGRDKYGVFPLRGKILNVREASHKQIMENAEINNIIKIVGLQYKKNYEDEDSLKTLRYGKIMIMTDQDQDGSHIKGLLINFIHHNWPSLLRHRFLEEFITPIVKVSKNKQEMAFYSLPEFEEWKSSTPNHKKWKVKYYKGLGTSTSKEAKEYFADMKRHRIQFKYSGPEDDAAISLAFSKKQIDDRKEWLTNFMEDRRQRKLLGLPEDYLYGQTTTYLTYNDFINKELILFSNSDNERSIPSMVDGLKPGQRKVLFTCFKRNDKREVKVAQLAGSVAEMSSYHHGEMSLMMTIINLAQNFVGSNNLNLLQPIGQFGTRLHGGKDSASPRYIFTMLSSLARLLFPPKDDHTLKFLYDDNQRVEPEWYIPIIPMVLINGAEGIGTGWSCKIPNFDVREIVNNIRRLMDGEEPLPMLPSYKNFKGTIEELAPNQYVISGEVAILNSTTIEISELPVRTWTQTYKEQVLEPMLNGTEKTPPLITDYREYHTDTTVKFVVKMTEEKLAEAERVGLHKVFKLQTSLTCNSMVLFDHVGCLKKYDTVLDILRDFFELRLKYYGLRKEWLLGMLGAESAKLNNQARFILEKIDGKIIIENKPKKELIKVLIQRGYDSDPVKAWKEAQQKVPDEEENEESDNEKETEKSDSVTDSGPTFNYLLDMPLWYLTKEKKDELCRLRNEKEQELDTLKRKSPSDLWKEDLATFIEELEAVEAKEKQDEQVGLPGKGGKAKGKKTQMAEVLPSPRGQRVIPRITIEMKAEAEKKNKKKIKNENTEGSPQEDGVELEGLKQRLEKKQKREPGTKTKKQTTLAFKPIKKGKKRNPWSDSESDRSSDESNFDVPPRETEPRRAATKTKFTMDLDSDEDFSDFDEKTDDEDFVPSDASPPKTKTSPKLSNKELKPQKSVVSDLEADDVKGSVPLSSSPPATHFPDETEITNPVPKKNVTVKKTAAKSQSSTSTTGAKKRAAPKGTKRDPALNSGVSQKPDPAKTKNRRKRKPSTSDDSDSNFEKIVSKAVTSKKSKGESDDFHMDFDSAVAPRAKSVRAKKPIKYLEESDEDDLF

Compound	inhibition at 20 µM (DNA topoisomerase I)	inhibition at 100 µM (DNA topoisomerase I)	inhibition at 20 µM (Human Topoisomerase IIα)	inhibition at 100 µM (Human Topoisomerase IIα)	melting point	IC50 (SMMC-7721 cells; Homo sapiens, SMMC-7721, 48 h)	IC50 (HepG2 cells; Homo sapiens, HepG2, 48 h)	IC50 (LO2 cells)	IC50 (SMMC-7721 cells)	IC50 (HepG2 cells)
Cc1ccc2[nH]c3c(c2c1)C[C@@]1(C)C(CC[C@]2(C)C1CC=C1C4[C@@H](C)[C@H](C)CC[C@]4(C(=O)NCCN)CC[C@]12C)C3(C)C (some centres unmarked) [4a, N-(2-Aminoethyl)-5′-methyl-1′H-ursa-2,12-dieno[3,2-b]indol-28-carboxamide]	5.6%	15.1%	25.9%	69.7%	228 to 230 °C	3.5 ± 0.61 µM	3.31 ± 0.35 µM	29.6 ± 2.12 µM	–	–
Cc1ccc2[nH]c3c(c2c1)C[C@@]1(C)C(CC[C@]2(C)C1CC=C1C4[C@@H](C)[C@H](C)CC[C@]4(C(=O)NCCN(C)C)CC[C@]12C)C3(C)C (some centres unmarked) [4b, N-(2-(Dimethylamino)ethyl)-5′-methyl-1′H-ursa-2,12-dieno[3,2-b]indol-28-carboxamide]	–	3.7%	36.9%	68%	166 to 168 °C	4.42 ± 0.71 µM	4.11 ± 0.55 µM	31.1 ± 2.63 µM	–	–
CC[C@@]1(O)C(=O)OCc2c1cc1n(c2=O)Cc2cc3ccccc3nc2-1 [CPT, camptothecin, reference compound]	38.2%	75.1%	–	–	–	0.56 ± 0.18 µM	1.12 ± 0.26 µM	8.93 ± 0.52 µM	–	–
Cc1ccc2[nH]c3c(c2c1)C[C@@]1(C)C(CC[C@]2(C)C1CC=C1C4[C@@H](C)[C@H](C)CC[C@]4(C(=O)NCCN4CCN(C)CC4)CC[C@]12C)C3(C)C (some centres unmarked) [4f, N-(2-(4-Methylpiperazin-1-yl)ethyl)-5′-methyl-1′H-ursa-2,12-dieno[3,2-b]indol-28-carboxamide]	–	0%	31.3%	73.7%	188 to 190 °C	~1 µM	~1 µM	18.3 ± 0.78 µM	1.24 ± 0.16 µM	1.35 ± 0.17 µM
COc1cccc2c1C(=O)c1c(O)c3c(c(O)c1C2=O)C[C@@](O)(C(=O)CO)C[C@@H]3O[C@H]1C[C@H](N)[C@H](O)[C@H](C)O1 [DOX, doxorubicin, reference compound]	–	–	–	–	–	0.68 ± 0.11 µM	0.81 ± 0.19 µM	5.32 ± 0.67 µM	–	–
CCN(CC)CCNC(=O)[C@]12CC[C@@H](C)[C@H](C)C1C1=CCC3[C@@]4(C)Cc5c([nH]c6ccc(C)cc56)C(C)(C)C4CC[C@@]3(C)[C@]1(C)CC2 (some centres unmarked) [4c, N-(2-(Diethylamino)ethyl)-5′-methyl-1′H-ursa-2,12-dieno[3,2-b]indol-28-carboxamide]	–	0%	38.3%	68.7%	–	2.1 ± 0.21 µM	2.24 ± 0.32 µM	26.4 ± 1.32 µM	–	–

Continued, in another order:

inhibition at 20 µM (DNA topoisomerase I)	inhibition at 100 µM (DNA topoisomerase I)	inhibition at 20 µM (Human Topoisomerase IIα)	inhibition at 100 µM (Human Topoisomerase IIα)	melting point	Compound	IC50 (SMMC-7721 cells; Homo sapiens, SMMC-7721, 48 h)	IC50 (HepG2 cells; Homo sapiens, HepG2, 48 h)	IC50 (LO2 cells)	IC50 (SMMC-7721 cells)	IC50 (HepG2 cells)
13.7%	28.8%	27%	71.1%	256 to 258 °C	Cc1ccc2[nH]c3c(c2c1)C[C@@]1(C)C(CC[C@]2(C)C1CC=C1C4[C@@H](C)[C@H](C)CC[C@]4(C(=O)NCCCCN)CC[C@]12C)C3(C)C (some centres unmarked) [6a, N-(4-Aminobutyl)-5′-methyl-1′H-ursa-2,12-dieno[3,2-b]indol-28-carboxamide]	~1 µM	~1 µM	15.2 ± 1.15 µM	1.21 ± 0.19 µM	1.32 ± 0.21 µM
–	0%	41.3%	81.1%	183 to 185 °C	Cc1ccc2[nH]c3c(c2c1)C[C@@]1(C)C(CC[C@]2(C)C1CC=C1C4[C@@H](C)[C@H](C)CC[C@]4(C(=O)NCCCN4CCCCC4)CC[C@]12C)C3(C)C (some centres unmarked) [5d, N-(3-(Piperidin-1-yl)propyl)-5′-methyl-1′H-ursa-2,12-dieno[3,2-b]indol-28-carboxamide]	0.89 ± 0.11 µM	1.04 ± 0.09 µM	12.8 ± 0.83 µM	–	–
–	–	47.8%	88.5%	–	COc1cc([C@@H]2c3cc4c(cc3[C@@H](O[C@@H]3O[C@@H]5CO[C@@H](C)O[C@H]5[C@H](O)[C@H]3O)[C@H]3COC(=O)[C@H]23)OCO4)cc(OC)c1O [VP-16, etoposide, reference compound]	0.36 ± 0.1 µM	0.57 ± 0.16 µM	5.92 ± 0.29 µM	–	–
–	0%	31.5%	70.8%	108 to 110 °C	Cc1ccc2[nH]c3c(c2c1)C[C@@]1(C)C(CC[C@]2(C)C1CC=C1C4[C@@H](C)[C@H](C)CC[C@]4(C(=O)NCCCN4CCOCC4)CC[C@]12C)C3(C)C (some centres unmarked) [5e, N-(3-Morpholinopropyl)-5′-methyl-1′H-ursa-2,12-dieno[3,2-b]indol-28-carboxamide]	3.75 ± 0.37 µM	5.27 ± 0.67 µM	28.6 ± 0.76 µM	–	–
–	0%	28.2%	65.6%	–	Cc1ccc2[nH]c3c(c2c1)C[C@@]1(C)C(CC[C@]2(C)C1CC=C1C4[C@@H](C)[C@H](C)CC[C@]4(C(=O)NCCCCN4CCOCC4)CC[C@]12C)C3(C)C (some centres unmarked) [6e, N-(4-Morpholinobutyl)-5′-methyl-1′H-ursa-2,12-dieno[3,2-b]indol-28-carboxamide]	4.55 ± 1.56 µM	7.84 ± 2.31 µM	35.4 ± 3.13 µM	–	–
0%	16.8%	35.2%	70%	132 to 134 °C	CCN(CC)CCCCNC(=O)[C@]12CC[C@@H](C)[C@H](C)C1C1=CCC3[C@@]4(C)Cc5c([nH]c6ccc(C)cc56)C(C)(C)C4CC[C@@]3(C)[C@]1(C)CC2 (some centres unmarked) [6c, N-(4-(Diethylamino)butyl)-5′-methyl-1′H-ursa-2,12-dieno[3,2-b]indol-28-carboxamide]	3.62 ± 0.23 µM	3.45 ± 0.25 µM	28.4 ± 2.98 µM	–	–
–	0%	39.8%	81.8%	–	Cc1ccc2[nH]c3c(c2c1)C[C@@]1(C)C(CC[C@]2(C)C1CC=C1C4[C@@H](C)[C@H](C)CC[C@]4(C(=O)NCCCCN4CCN(C)CC4)CC[C@]12C)C3(C)C (some centres unmarked) [6f, N-(4-(4-Methylpiperazin-1-yl)butyl)-5′-methyl-1′H-ursa-2,12-dieno[3,2-b]indol-28-carboxamide]	~1 µM	~1 µM	13.7 ± 1.28 µM	0.65 ± 0.07 µM	1.01 ± 0.12 µM
